From the supplement of paper PMC10307832

Assays:
[1] = compound: COc1cc(N2CCC(N3CCN(C)CC3)CC2)ccc1Nc1ncc(Cl)c(Nc2ccccc2S(=O)(=O)C(C)C)n1 [NVP-TAE684]; assay: relative viability (nuclei count vs DMSO), 5 days (fraction); higher = more cells survive
How it was run: (§1)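 Nuclei counted with MetaXpress define viability as the ratio of treated to vehicle wells, given as a median across plates. The lung cancer cell lines were in 1536-well plates, pinned with five √10-spaced library-drug doses and imaged at 4× after 5 days and Hoechst staining. Plates passed with control CV below 25% and at least one doubling.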

[2] = compound: COc1cc2/c(=N/c3ccc(Br)cc3F)nc[nH]c2cc1OCC1CCN(C)CC1 [Vandetanib]; assay: as above
How it was run: as §1

| Cell Line | relative viability ([1]; 0.2 µM) | relative viability ([1]; 0.6325 µM) | relative viability ([1]; 2 µM) | relative viability ([2]; 0.02 µM) | relative viability ([2]; 0.06325 µM) | relative viability ([2]; 0.2 µM) | relative viability ([2]; 0.6325 µM) | relative viability ([2]; 2 µM) |
| --- | --- | --- | --- | --- | --- | --- | --- | --- |
| NCI-H661 | 0.99 | 0.972 | 0.95 | 0.943 | 0.989 | 0.967 | 1.05 | 0.901 |
| NCI-H727 | 0.806 | 0.91 | 0.515 | 0.894 | 0.809 | 0.906 | 0.796 | 0.681 |
| NCI-H838 | – | 0.792 | 0.545 | 0.938 | 0.902 | 0.973 | 0.94 | 0.957 |
| NCI-H1299 | 1.05 | 1.01 | – | 1.01 | 0.963 | 1.05 | 1.01 | 1.02 |
| NCI-H1355 | 0.961 | 0.921 | 0.75 | 0.997 | 0.892 | 1.01 | 1.02 | 0.957 |
| NCI-H1395 | 1.01 | 0.777 | 0.977 | 0.909 | 0.954 | 0.856 | 0.938 | 0.795 |
| NCI-H1437 | – | 0.957 | 0.758 | 0.937 | 0.968 | 0.955 | 1.03 | 0.981 |
| NCI-H1563 | 0.955 | 0.95 | – | 0.973 | 1.07 | 0.989 | 1.03 | 0.94 |
| NCI-H1623 | 0.945 | 0.868 | 0.852 | 0.891 | 0.905 | 0.949 | 0.938 | 0.825 |
| NCI-H1648 | 0.715 | 0.713 | 0.363 | 0.862 | 0.824 | 0.745 | 0.915 | 0.561 |
| NCI-H1650 | 0.782 | 0.745 | 0.45 | 0.997 | 0.736 | 0.843 | 0.855 | 0.705 |
| NCI-H1651 | 0.946 | 0.966 | 0.868 | 0.943 | 0.961 | 0.979 | 0.96 | 0.893 |
| NCI-H1666 | 0.922 | 0.933 | 0.812 | 0.991 | 0.932 | 0.891 | 1.01 | 0.918 |
| NCI-H1703 | 1.07 | 0.845 | – | 1.02 | 0.673 | 0.963 | 0.775 | 0.537 |
| NCI-H1734 | 0.983 | 0.901 | 0.705 | 0.954 | 0.93 | 1.03 | 0.894 | 1.01 |
| NCI-H1755 | 1.04 | 1.04 | 0.892 | 1.02 | 0.952 | 0.975 | 0.973 | 0.96 |
| NCI-H1792 | 0.844 | 0.708 | 0.594 | 0.878 | 0.829 | 0.974 | 0.858 | 0.874 |
| NCI-H1793 | 0.826 | 0.875 | 0.816 | 1.01 | 0.821 | 0.833 | 0.765 | 0.781 |
| NCI-H1915 | 1.02 | 1.02 | 0.949 | 0.956 | 0.984 | 1.01 | 0.97 | 0.985 |
| NCI-H1944 | 1.08 | 0.939 | 0.94 | 0.909 | 0.92 | 0.902 | 0.813 | 0.965 |

| Cell Line | relative viability ([1]; 0.2 µM) | relative viability ([1]; 0.6325 µM) | relative viability ([1]; 2 µM) | relative viability ([2]; 0.02 µM) | relative viability ([2]; 0.06325 µM) | relative viability ([2]; 0.2 µM) | relative viability ([2]; 0.6325 µM) | relative viability ([2]; 2 µM) |
| --- | --- | --- | --- | --- | --- | --- | --- | --- |
| NCI-H1975 | 0.974 | 0.926 | 0.608 | 0.931 | 0.888 | 0.871 | 0.997 | 0.805 |
| NCI-H1993 | 0.813 | 0.885 | 0.703 | 1 | 0.922 | 0.944 | 0.871 | 0.754 |
| NCI-H2009 | 0.993 | 0.936 | 0.762 | 0.963 | 0.972 | 1.01 | 1.03 | 1.05 |
| NCI-H2023 | 1.02 | 0.756 | 0.265 | 0.909 | 0.947 | 1.02 | 0.917 | 0.936 |
| NCI-H2085 | 0.986 | – | 0.914 | 1.04 | 0.99 | 0.99 | 1.01 | 0.931 |
| NCI-H2087 | 1.09 | – | 0.989 | 0.934 | 0.938 | 1.02 | 1.15 | 1.14 |
| NCI-H2126 | 0.991 | 0.959 | 0.684 | 0.96 | 0.91 | 0.965 | 0.906 | 0.903 |
| NCI-H2170 | 0.995 | 0.969 | 1.04 | 0.944 | 0.917 | 1 | 0.97 | 0.989 |
| NCI-H2228 | 0.632 | 0.36 | 0.29 | 1.04 | 0.983 | 0.836 | 1.12 | 0.809 |
| NCI-H2342 | 0.917 | 0.849 | 0.647 | 1 | 0.964 | 0.953 | 0.95 | 0.949 |
| NCI-H2347 | 0.964 | 0.932 | 0.986 | 1.03 | 0.785 | 1.03 | 1.06 | 0.988 |
| NCI-H2405 | 1.06 | 0.869 | 0.574 | 0.993 | 0.785 | 1.1 | 1.06 | 0.689 |
| NCI-H3122 | 0.236 | 0.164 | 0.126 | 0.928 | 1 | 1.02 | 0.984 | 0.978 |
| PC-3 [JPC-3] | 1.08 | 0.945 | 0.984 | 1 | 0.922 | 0.983 | 0.653 | 0.507 |
| PC-14 | 0.998 | 1.01 | 0.921 | 0.987 | 0.833 | 0.574 | 0.369 | 0.223 |
| RERF-LC-KJ | 0.971 | 0.969 | 0.79 | 0.962 | 0.954 | 0.963 | 0.927 | 0.815 |
| SK-LU-1 | 1.12 | 0.962 | 0.733 | 1.01 | 0.791 | 1.02 | 1.07 | 0.984 |
| SK-MES-1 | 1.02 | – | 0.714 | 1 | 0.896 | 1.03 | 0.912 | 0.827 |
| SW 900 | 0.96 | 0.754 | 0.776 | 0.898 | 0.887 | 0.65 | 0.93 | 0.775 |
| SW 1573 | 0.948 | 1.02 | 0.645 | 0.941 | 0.972 | 0.92 | 0.979 | 0.983 |
